Data taken from patent publication US7351407B2, “Agents which regulate, inhibit, or modulate the activity and/or expression of connective tissue growth factor (CTGF) as a unique means to both lower intraocular pressure and treat glaucomatous retinopathies/optic neuropathies” (Alcon, Inc., priority 2002, dated 2008).

Key:
CTGF gene expression = assay: CTGF QPCR assay for inhibition of basal and TGFβ2-induced CTGF gene expression in cultured human TM cells; format: cell-based; settings: for inhibition of basal CTGF gene expression (mRNA levels) / inhibition of TGFβ2-induced CTGF gene expression (mRNA levels): cultured human normal or glaucomatous TM cells, QPCR; for inhibition of TGFβ2-induced CTGF gene expression (mRNA levels): TGFβ2-stimulated; for inhibitory activity on CTGF expression: human TM cells, basal or TGFβ2-induced not specified
Description: FIG. 3. Effect of GSK-3 inhibition on CTGF gene expression in glaucomatous TM cells.
FIG. 4. Effect of CDK2 inhibition on CTGF gene expression in glaucomatous TM cells. To determine the effects of CDK inhibition on CTGF gene expression, we measured the effects of the known CDK2 inhibitor GW-8510 (Davis, et al. 2001) on both basal and TGFβ2-stimulated CTGF mRNA expression in a glaucomatous TM cell line (SGTM2697) using QPCR analysis.
The inventors have tested several different compound classes in a CTGF QPCR assay for inhibition of basal and TGFβ2-induced CTGF gene expression in cultured human normal or glaucomatous TM cells. Small molecule inhibitors were targeted at the inhibition of GSK-3, CDK, NAALADase, Protein Kinase C, MEK, p38MAPK, ROCK, VEGF, geranylgeranyl transferase and AGE. Small molecule agonists of PPAR, 5-HT, and P2X7 were also tested for activity. Compounds which target extracellular signal-regulated kinase 1 or 2 (ERK1 or ERK2) may also play a role in basal or TGFβ2-induced CTGF gene expression.
Total RNA was isolated from TM cells using Trizol® reagent according to the manufacturer's instructions (Life Technologies). First strand cDNA was generated from 1 ug of total RNA using random hexamers and TaqMan® Reverse Transcription reagents according to the manufacturer's instructions (PE Biosystems, Foster City, Calif.). The 100 ul reaction was subsequently diluted 20-fold to achieve an effective cDNA concentration of 0.5 ng/ul.
Differential expression of CTGF was verified by quantitative real-time RT-PCR (QPCR) using an ABI Prism® 7700 Sequence Detection System (Applied Biosystems). essentially as described (Shepard et al., IOVS 2001, 42:3173). Primers for CTGF amplification were designed using Primer Express software (Applied Biosystems) and anneal to adjacent exons of Genbank accession # NM_001901.1 ([…], nts 1667-1689 and […], nts 1723-1742) and generate a 76-bp amplicon. Amplification of CTGF was normalized to 18S ribosomal RNA expression using primers designed to the 18S rRNA gene (GenBank accession #X03205 […], nts 1680-1700 and […], nts 1730-1749) which generates a 69-bp amplicon. The SYBR® Green I double-stranded DNA binding dye chemistry (Applied Biosystems) was used to amplify CTGF or 18S cDNA. Specificity of the CTGF and 18S primer pairs was assessed from the PCR product by a combination of DNA sequencing, agarose gel analysis and dissociation curve analysis using the ABI Prism 770 SDS Dissociation Curve software (Applied Biosystems). CTGF or 18S rRNA reactions consisted of 1×SYBR Green PCR Master Mix (Applied Biosystems), 50 nM primer concentrations and 2.5 ng cDNA in a final volume of 50 ul. Thermal cycling conditions consisted of 50° C., 2 min, 95° C. 10 min followed by 40 cycles at 95° C., 15 sec, 60° C., 1 min. Quantification of relative RNA concentrations was done using the relative standard curve method as described in PE Biosystems User Bulletin #2 (http://docs.appliedbiosystems.com/pebiodocs/04303859.pdf). Data analysis was performed with SDS software version 1.9.1 (Applied Biosystems) and MS Excel 97 (Microsoft). Plasmid DNA containing target sequence for CTGF or 18S was used for generating the standard curve. QPCR data are presented as mean±SD.

CDK1 = CDK1 (Homo sapiens, UniProt P06493); settings: cited from earlier work
CDK1, sequence (P06493 whole entry, species assumed): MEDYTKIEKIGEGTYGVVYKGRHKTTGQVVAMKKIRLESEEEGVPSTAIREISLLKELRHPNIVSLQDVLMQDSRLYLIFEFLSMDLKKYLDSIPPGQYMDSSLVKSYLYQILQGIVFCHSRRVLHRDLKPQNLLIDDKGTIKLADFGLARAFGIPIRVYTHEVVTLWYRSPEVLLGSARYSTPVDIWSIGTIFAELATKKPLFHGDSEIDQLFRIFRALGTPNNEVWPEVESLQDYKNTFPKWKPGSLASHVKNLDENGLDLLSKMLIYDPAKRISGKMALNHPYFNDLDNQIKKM
CDK1, sequence (P14635 whole entry partner, species assumed): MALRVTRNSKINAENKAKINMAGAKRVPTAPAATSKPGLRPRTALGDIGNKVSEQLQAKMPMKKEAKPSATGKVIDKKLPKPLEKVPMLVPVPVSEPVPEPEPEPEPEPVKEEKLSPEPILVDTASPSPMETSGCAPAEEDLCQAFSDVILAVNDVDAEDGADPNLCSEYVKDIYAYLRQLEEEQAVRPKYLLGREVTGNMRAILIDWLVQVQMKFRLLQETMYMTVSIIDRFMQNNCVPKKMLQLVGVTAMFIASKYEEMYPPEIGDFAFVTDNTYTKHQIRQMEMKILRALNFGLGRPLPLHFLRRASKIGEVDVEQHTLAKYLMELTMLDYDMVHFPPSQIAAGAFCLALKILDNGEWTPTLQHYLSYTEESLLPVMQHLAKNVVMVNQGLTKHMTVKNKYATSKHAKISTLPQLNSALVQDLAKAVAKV

CDK4 = CDK4 (Homo sapiens, UniProt P11802); settings: cited from earlier work
CDK4, sequence (P11802 whole entry, species assumed): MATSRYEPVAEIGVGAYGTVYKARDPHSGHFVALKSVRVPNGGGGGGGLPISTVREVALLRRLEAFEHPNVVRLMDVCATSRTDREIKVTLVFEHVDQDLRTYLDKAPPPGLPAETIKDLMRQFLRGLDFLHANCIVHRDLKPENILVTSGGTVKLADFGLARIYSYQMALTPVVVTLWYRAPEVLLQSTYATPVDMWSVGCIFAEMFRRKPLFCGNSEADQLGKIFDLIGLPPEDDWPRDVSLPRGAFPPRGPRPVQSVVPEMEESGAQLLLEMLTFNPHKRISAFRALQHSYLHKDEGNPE
CDK4, sequence (P24385 whole entry partner, species assumed): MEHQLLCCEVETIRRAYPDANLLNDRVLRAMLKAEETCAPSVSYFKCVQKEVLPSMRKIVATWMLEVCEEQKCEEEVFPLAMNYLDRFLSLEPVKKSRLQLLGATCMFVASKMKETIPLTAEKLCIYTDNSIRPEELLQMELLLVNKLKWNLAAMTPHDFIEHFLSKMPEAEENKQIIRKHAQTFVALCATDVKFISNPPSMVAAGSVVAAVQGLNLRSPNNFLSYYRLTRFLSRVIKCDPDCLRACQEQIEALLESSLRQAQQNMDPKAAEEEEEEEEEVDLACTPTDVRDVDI

SMILES	inhibition of basal CTGF gene expression (mRNA levels) (CTGF gene expression)	other results
O=C1Cc2c([nH]c3ccc(Br)cc23)-c2ccccc2N1 [kenpaullone]	inhibit basal	–
O=C1Cc2c([nH]c3ccc([N+](=O)[O-])cc23)-c2ccccc2N1 [alsterpaullone]	inhibit basal	–
O=C1Nc2ccc3ncsc3c2/C1=C/Nc1ccc(S(=O)(=O)Nc2ccccn2)cc1 [GW-8510]	inhibit	inhibition of TGFβ2-induced CTGF gene expression (mRNA levels) (CTGF gene expression): inhibit; IC50 (CDK1): 0.11 µM; IC50 (CDK4): 0.13 µM
CC[C@H](CO)Nc1nc(NCc2ccccc2)c2ncn(C(C)C)c2n1 [roscovitine]	–	inhibitory activity on CTGF expression (CTGF gene expression): inhibitory activity
CCCCC[C@H](O)/C=C/C=C\C/C=C\C/C=C\CCCC(=O)O [15(S)HETE]	inhibit basal	–
Cn1cc(C2=C(c3ccc(Cl)cc3Cl)C(=O)NC2=O)c2ccccc21 [SB-216763]	inhibit	inhibition of TGFβ2-induced CTGF gene expression (mRNA levels) (CTGF gene expression): inhibit
N#Cc1ccc2[nH]c3c(c2c1)CC(=O)Nc1ccccc1-3 [9-cyanopaullone]	inhibit basal	–
CC(C)[C@H](CO)Nc1nc(Nc2cccc(Cl)c2)c2ncn(C(C)C)c2n1 [purvalanol A]	–	inhibitory activity on CTGF expression (CTGF gene expression): inhibitory activity
